Tested on: Plasmodium falciparum
Experiment: GSK_TCMDC: Inhibition of Plasmodium falciparum 3D7 in whole erythrocytes, using parasite LDH activity as an index of growth.
Assay type: functional, organism-based
Conditions: Plasmodium falciparum, 3D7

## Oc1ccc(-c2ccccc2)cc1CN1CCCCC1
  XC50: 903 nM

## CN1CCC(C(=O)Nc2ccc(-c3cccc(-c4nc5cc(C(F)(F)F)ccc5[nH]4)c3)cc2)CC1
  XC50: 577 nM

## Cc1ccc(CN2CCN(Cc3cccc(NC(=O)c4cccs4)c3)CC2)cc1C
  XC50: 1030 nM

## COc1cccc2cc(C(=O)N[C@@H](CC(C)C)C(=O)N[C@H](C=NNC(=O)OC(C)(C)C)CC(C)C)oc12
  XC50: 905 nM

## Cc1cccc2nc(-c3cccc(-c4ccc(NC(=O)CN5CCOCC5)cc4)c3)[nH]c12
  XC50: 1050 nM

## COc1ccc(O)c(C(=O)c2cnc3c(c2)c(-c2ccc(F)cc2)c(C#N)c(=O)n3C)c1
  XC50: 792 nM

## CCN(CC)CCN(Cc1ccc(-c2ccc(C(F)(F)F)cc2)cc1)C(=O)Cn1c(CCc2cccc(F)c2F)nc(=O)c2cc(F)c(F)cc21
  XC50: 833 nM

## CCNc1cc(C(=O)N[C@@H](Cc2ccccc2)[C@H](O)CNC(C)CCCC(C)C)cc(N2CCCS2(=O)=O)c1 (stereo partly drawn)
  XC50: 219 nM

## COc1ccc2[nH]c(C)cc(=NN=Cc3ccccc3F)c2c1
  XC50: 365 nM

## CCc1cc([C@H]2O[C@@H](n3cnc4c(NCC(c5ccccc5)c5ccccc5)nc(NCCNc5ccccn5)nc43)[C@H](O)[C@@H]2O)on1
  XC50: 891 nM

## CN(C)CCOc1ccc2c(c1)OC(C)(C)C=C2c1cccc2ccccc12
  XC50: 785 nM

## COc1csc2cc(Br)ccc12
  XC50: 861 nM

## Cc1cccc2nc(-c3ccc(-c4ccc(CN5CCN(CCN6CCOCC6)CC5)cc4)cc3)[nH]c12
  XC50: 231 nM

## COc1ccc(Nc2nc(=Nc3ccccc3)nc(NN=Cc3cc(Cl)ccc3O)[nH]2)cc1
  XC50: 647 nM

## CNC(=O)Cc1ccc(C(=O)Nc2cccc(-c3cccc(-c4nc5cccc(C)c5[nH]4)c3)c2)cc1
  XC50: 530 nM

## Nc1n[nH]c(-c2ccccc2Nc2ccnc3cc(-c4nccs4)ccc23)n1
  XC50: 1120 nM

## Cc1cc(C2CCCCN2C)ccc1-c1ccc(C(=O)N2CCc3cc4c(cc32)C2(CCN(C)CC2)CO4)cc1 (stereo not drawn)
  XC50: 791 nM

## CC[C@H](NC(=O)c1c(CCCN2CCN(c3ccccc3)CC2)c(-c2ccccc2)nc2cc(O)ccc12)c1ccccc1
  XC50: 780 nM

## CO/C(=C\C=C\c1cc2cc(Cl)c(Cl)cc2[nH]1)C(=O)NC1CC2CCCC(C1)N2C (stereo not drawn)
  XC50: 1000 nM

## O=C(CC(=O)Nc1cc(Cl)cc(Cl)c1)Nc1cc(Cl)cc(Cl)c1
  XC50: 159 nM

## Cc1cccc(-c2ccc(CNC3CCN(CC4Cn5c(=O)ccc6ccc(F)c4c65)CC3)cn2)c1 (stereo not drawn)
  XC50: 1530 nM

## Cc1ccc(NC(=O)c2ccc(CN3CCCN(CCC(C)C)CC3)cc2)cc1F
  XC50: 609 nM

## c1cc2c3c(cccc3c1)NC(CCCCCCCCC1=Nc3cccc4cccc(c34)N1)=N2
  XC50: 826 nM

## CCCCCC(=O)N1CCOC(CCN2CCC(c3ccccc3)CC2)(c2ccc(Cl)c(Cl)c2)C1 (stereo not drawn)
  XC50: 1120 nM

## CCCC1(NC[C@@H](O)[C@H](Cc2ccccc2)NC(=O)c2cc(NCC)cc(N3CCCCS3(=O)=O)c2)CC1
  XC50: 1080 nM

## O=C1C(=Cc2cc(Cc3ccccc3)ccc2O)SC(=S)N1Cc1ccccc1
  XC50: 943 nM

## CN1CCC(C(=O)N(Cc2ccc(-c3ccc(CNCCc4ccc(S(C)(=O)=O)cc4)cn3)cc2)Cc2ccc3c(c2)OCO3)CC1
  XC50: 1000 nM

## COc1cc2nc(N3CCC(CNC(=O)c4cc(Br)c(Br)s4)CC3)nc(N)c2cc1OC
  XC50: 707 nM

## Cc1cc(NC(=O)c2coc3cc(F)c(N4CC(C)N(C)C(C)C4)cc23)cnc1-c1ccc(C#N)cc1 (stereo not drawn)
  XC50: 695 nM

## CC(=O)c1ccc(NC(=O)C2c3ccccc3C(=O)N(CC(C)C)C2c2cccs2)cc1 (stereo not drawn)
  XC50: 1320 nM

## O=[N+]([O-])c1cccc(C(Nc2ccccn2)c2ccc3cccnc3c2O)c1 (stereo not drawn)
  XC50: 1330 nM

## COc1ccccc1C(C)NCC(=O)Nc1cc(C(F)(F)F)ccc1Cl (stereo not drawn)
  XC50: 778 nM

## CCOCCCNc1sc(S(=O)(=O)c2ccccc2)nc1S(=O)(=O)c1ccc(C)cc1
  XC50: 809 nM

## CN1CC(c2ccc(Cl)c(Cl)c2)OC1=N (stereo not drawn)
  XC50: 283 nM

## CC1CN(c2ccnc3ccc(Sc4ccc(Oc5ccccc5)cc4)cc23)CC(C)N1 (stereo not drawn)
  XC50: 785 nM

## CCCN1CCC=C(c2cccc(Nc3nccc(Nc4cc(OC)ccc4C)n3)c2)C1
  XC50: 1040 nM

## O=C(NC1CCN(CC2(c3ccc(Cl)cc3)CCCCC2)CC1)c1cc[nH]n1
  XC50: 84 nM

## Nc1ncnc2nc(-c3ccc(F)cc3)cc(-c3ccc(NC(=O)c4ccccc4)cc3)c12
  XC50: 640 nM

## CCOc1cc(C)ccc1C1CCN(CCCCNC(=O)c2cnc(-c3ccc(C(F)(F)F)cc3)[nH]2)CC1
  XC50: 771 nM

## CCOc1ccc(C2CCN(CCCCNC(=O)c3ccc(NC(=O)c4ccc(Cl)cc4)cc3)CC2)c(CC)c1
  XC50: 786 nM

## COc1ccc(Cn2c(=O)[nH]c3cc(C(=O)NC4CCN(Cc5ccccc5)CC4)ccc3c2=O)cc1
  XC50: 751 nM

## Cn1cncc1C(=O)Nc1cccc(-c2ccc(-c3nc4ccccc4[nH]3)s2)c1
  XC50: 796 nM

## Cc1cccc(C(=O)Nc2ccnc(N3CCCN(Cc4cccc(O)c4)CC3)c2)c1
  XC50: 1210 nM

## COc1cc(C2CCCCC2)c(OC)cc1CC1c2cc(O)c(Cl)cc2CCN1C (stereo not drawn)
  XC50: 449 nM

## CCc1ccc(S(=O)(=O)Nc2ccc(CCN(C)C3CCN(C)CC3)cc2)cc1
  XC50: 1060 nM

## CCc1ccc(CN2CCC(NC(=O)c3ccc(-c4ccc(N(C)C)cc4)s3)CC2)cc1
  XC50: 1210 nM

## COc1ccc(CN2CCC(C(=O)Nc3cccc(-c4cccc(Cl)c4)c3)CC2)cc1O
  XC50: 975 nM

## CCCNC(=O)c1cncc(-c2ccc(CNC3Cc4ccccc4C3)cc2)c1
  XC50: 848 nM

## c1ccc(CNc2cc(-c3ccccn3)nc(-c3ccccn3)n2)cc1
  XC50: 302 nM

## Cc1ccc(NC(=O)Nc2ccc(Cl)cc2)cc1-c1ccc(C(=O)Nc2ccncc2)cc1
  XC50: 534 nM

## O=C(Nc1ccc(CN2CCOCC2)cc1)c1ccc(-c2ccc(Br)cc2)o1
  XC50: 1120 nM

## CC(=O)c1nccc(C)c1N
  XC50: 929 nM

## Cc1cc(C)cc(OCC(O)CN(Cc2cc(Cl)cc(Cl)c2)C(=O)Nc2ccc(Cl)cc2)c1 (stereo not drawn)
  XC50: 810 nM

## COc1ccc2[nH]cc(C3CCN(CCC4CCN(C(=O)/C=C/c5ccc(Cl)c(Cl)c5)CC4)CC3)c2c1
  XC50: 862 nM

## O=C(Nc1cccc(-c2cccc(-c3nc4cc(C(F)(F)F)ccc4[nH]3)c2)c1)c1ccncc1
  XC50: 201 nM

## Cn1nc(-c2ccc(S(=O)(=O)N3CCC(CN4CCC(c5c[nH]c6ccccc56)CC4)CC3)s2)cc1C(F)(F)F
  XC50: 1090 nM

## CC(C)(C)c1ccc(-c2csc(NC(=O)CC(c3ccccc3)c3ccccc3)n2)cc1
  XC50: 1150 nM

## Cc1cnc2cc3c(cc2c1N1CCN(C)CC1)NCC3
  XC50: 779 nM

## CCCCCNC(=N)c1ccc(OCCCCCOc2ccc(C(=N)NCCCCC)cc2)cc1
  XC50: 247 nM

## OCC1CCN(Cc2cccc(-c3cccc(-c4nc5cc(C(F)(F)F)ccc5[nH]4)c3)c2)CC1
  XC50: 506 nM

## CCCCCN1CCC(NS(=O)(=O)c2ccc(C(=O)Nc3cccc(C(F)(F)F)c3)cc2)C1 (stereo not drawn)
  XC50: 995 nM

## CC[C@H]1CN2CCc3cc(OC)c(OC)cc3[C@@H]2C[C@@H]1C[C@H]1NCCc2cc(OC)c(OC)cc21 [EMETINE]
  XC50: 214 nM

## CCCCCCCn1c2c(c(=N)c3c1CCC3)CCCC2
  XC50: 102 nM

## COc1cccc(C(=O)OC2=C3CCC(=O)C3(C)CCC2=O)c1 (stereo not drawn)
  XC50: 77.9 nM

## O=C(/C=C/c1ccc(-c2nc3cc(F)c(F)cc3[nH]2)cc1)NCc1ccc(Cl)c(Cl)c1
  XC50: 938 nM

## COc1cc(OC)c2c(c1Cl)O[C@]1(C2=O)C(=O)C(Cc2ccccc2)(Cc2ccccc2)C(=O)C[C@H]1C
  XC50: 974 nM

## Cc1c2ccncc2c(C)c2c1[nH]c1ccccc12 [ELLIPTECINE]
  XC50: 796 nM

## CC1CCCN1Cc1ccc(-c2ccc3c(=O)cc(CCc4cccc(F)c4F)n(CC(=O)N(C)Cc4ccc(-c5ccc(C(F)(F)F)cc5)cc4)c3n2)cc1 (stereo not drawn)
  XC50: 823 nM
